# Calls of active or inactive are those of the source. The rule behind the calls is not given here.
# How the values were obtained:
# [1] = system: Human immunodeficiency virus 1; test: Antiviral activity against HIV1 NL4-3 harboring reverse transcriptase V108I, E138K, F227F/L mutant infected in human SupT1 cells derived from 11 viral passages with lersivirine assessed as inhibition of viral replication after 21 days relative to drug sensitive HIV1 NL4-3; assay type: functional, SUP-T1
# [2] = system: Human immunodeficiency virus type 1 reverse transcriptase (Human immunodeficiency virus 1), Q72547 [V106A]; test: Inhibition of HIV1 histidine-tagged reverse transcriptase V106A mutant activity by primer extension assay
# [3] = target: Human immunodeficiency virus type 1 reverse transcriptase (Human immunodeficiency virus 1, UniProt Q72547, K103N); test: Inhibition of HIV1 HXB2 reverse transcriptase K103N mutant activity by primer extension assay
# [4] = system: Human immunodeficiency virus 1; test: Antiviral activity against HIV1 NL4-3 harboring reverse transcriptase L100I mutant infected in human HeLaP4 cells assessed as inhibition of viral replication after 5 days by beta-galactosidase reporter assay; assay type: functional, organism-based
# [5] = system: Human immunodeficiency virus 1; test: Antiviral activity against HIV1 NL4-3 infected in human MT2 cells assessed as inhibition of virus-induced cell death at 0.5 multiplicities of infection after 6 days; assay type: functional, organism-based; settings: Human immunodeficiency virus 1, NL4-3, MT2, 144 h
# [6] = system: Human immunodeficiency virus 1; test: Antiviral activity against HIV1 NL4-3 harboring reverse transcriptase E138K mutant infected in human HeLaP4 cells assessed as inhibition of viral replication after 5 days by beta-galactosidase reporter assay; assay type: functional, organism-based
# [7] = Ratio of CC30 for human PBL cells to EC90 for HIV1
# Homo sapiens [8] = species: Homo sapiens; test: Inhibition of human neuronal nicotinic […] receptor at up to 10 uM
# [9] = target: Adrenergic receptor alpha-1 (Homo sapiens) (UniProt P35348+P25100+P35368); test: Inhibition of human adrenergic alpha1 receptor at up to 10 uM
# [10] = system: Human immunodeficiency virus type 1 reverse transcriptase (Human immunodeficiency virus 1), Q72547 [K103N]; test: Binding affinity to HIV1 HXB2 reverse transcriptase K103N mutant by protein X-ray crystallography analysis
# [11] = system: Human immunodeficiency virus 1; test: Ratio of EC50 for wild type HIV1 NL4-3 to EC50 for HIV1 NL4-3 harboring reverse transcriptase L100I mutant; assay type: functional
# [12] = target: 5-hydroxytryptamine receptor 1B (Homo sapiens) (UniProt P28222); test: Inhibition of human 5-HT1B receptor at up to 10 uM
# [13] = target: Beta-1 adrenergic receptor (Homo sapiens) (UniProt P08588); test: Inhibition of human adrenergic beta1 receptor at up to 10 uM
# [14] = system: Human immunodeficiency virus type 1 reverse transcriptase (Human immunodeficiency virus 1), Q72547 [M184V]; test: Inhibition of HIV1 histidine-tagged reverse transcriptase M184V mutant activity by primer extension assay
# Homo sapiens [15] = species: Homo sapiens; test: Inhibition of human Phosphodiesterase 3 at up to 10 uM
# [16] = system: Human immunodeficiency virus 1; test: Antiviral activity against HIV1 NL4-3 harboring reverse transcriptase V108I mutant infected in human HeLaP4 cells assessed as inhibition of viral replication after 5 days by beta-galactosidase reporter assay; assay type: functional, organism-based
# [17] = system: Human immunodeficiency virus 1; test: Ratio of EC50 for wild type HIV1 NL4-3 to EC50 for HIV1 NL4-3 harboring reverse transcriptase V108I mutant; assay type: functional
# [18] = target: Adrenergic receptor alpha-2 (Homo sapiens) (UniProt P08913+P18825+P18089); test: Inhibition of human adrenergic alpha2 receptor at up to 10 uM
# [19] = system: Human immunodeficiency virus 1; test: Ratio of EC50 for wild type HIV1 NL4-3 to EC50 for HIV1 NL4-3 harboring reverse transcriptase F227C mutant; assay type: functional
# [20] = system: Human immunodeficiency virus 1; test: Ratio of EC50 for wild type HIV1 NL4-3 to EC50 for HIV1 NL4-3 harboring reverse transcriptase L234I mutant; assay type: functional
# [21] = target: Amine oxidase [flavin-containing] A (Homo sapiens, UniProt P21397); test: Inhibition of human MAO-A at up to 10 uM
# [22] = system: Human immunodeficiency virus 1; assay type: functional, organism-based; settings: NL4-3, HeLaP4
# [23] = Cytotoxicity against human HeLaP4 cells at 200 uM by aqueous nonradioactive cell proliferation assay; assay type: cell-based; settings: helap4, 200 µM
# [24] = target: Acetylcholinesterase (Homo sapiens) (UniProt P22303); test: Inhibition of human acetylcholinesterase at up to 10 uM
# [25] = system: Human immunodeficiency virus type 1 reverse transcriptase (Human immunodeficiency virus 1), Q72547 [K101E]; test: Inhibition of HIV1 histidine-tagged reverse transcriptase K101E mutant activity by primer extension assay
# [26] = system: Human immunodeficiency virus 1; test: Antiviral activity against HIV1 NL4-3 harboring reverse transcriptase F227L mutant infected in human HeLaP4 cells assessed as inhibition of viral replication after 5 days by beta-galactosidase reporter assay; assay type: functional, organism-based
# [27] = Ratio of CC30 for human HeLaP4 cells to EC90 for HIV1
# [28] = system: Human immunodeficiency virus 1; test: Ratio of EC50 for wild type HIV1 NL4-3 to EC50 for HIV1 NL4-3 harboring reverse transcriptase V106A mutant; assay type: functional
# Homo sapiens [29] = species: Homo sapiens; test: Inhibition of human tyrosine hydroxylase at up to 10 uM
# [30] = system: Human immunodeficiency virus type 1 reverse transcriptase (Human immunodeficiency virus 1), Q72547 [K103N]; test: Inhibition of HIV1 histidine-tagged reverse transcriptase K103N mutant activity by primer extension assay
# [31] = system: Human immunodeficiency virus 1; test: Antiviral activity against HIV1 NL4-3 harboring reverse transcriptase K103N mutant infected in human HeLaP4 cells assessed as inhibition of viral replication after 5 days by beta-galactosidase reporter assay; assay type: functional, organism-based; settings: Human immunodeficiency virus 1, NL4-3, HeLaP4, 120 h
# [32] = system: Human immunodeficiency virus 1; test: Antiviral activity against HIV1 NL4-3 harboring reverse transcriptase E233V mutant infected in human HeLaP4 cells assessed as inhibition of viral replication after 5 days by beta-galactosidase reporter assay; assay type: functional, organism-based
# [33] = target: 5-hydroxytryptamine receptor 2A (Homo sapiens) (UniProt P28223); test: Inhibition of human 5-HT2A receptor at up to 10 uM
# [34] = system: Human immunodeficiency virus 1; test: Ratio of EC50 for wild type HIV1 NL4-3 to EC50 for HIV1 NL4-3 harboring reverse transcriptase E233V mutant; assay type: functional
# [35] = target: Beta-2 adrenergic receptor (Homo sapiens) (UniProt P07550); test: Inhibition of human adrenergic beta2 receptor at up to 10 uM
# [36] = target: Histamine H1 receptor (Homo sapiens) (UniProt P35367); test: Inhibition of human histamine H1 receptor at up to 10 uM
# [37] = system: Human immunodeficiency virus 1; test: Antiviral activity against HIV1 NL4-3 harboring reverse transcriptase V108I, H221Y, F227F/L, M230M/I mutant infected in human SupT1 cells derived from 11 viral passages with lersivirine assessed as inhibition of viral replication after 21 days relative to drug sensitive HIV1 NL4-3; assay type: functional, SUP-T1
# [38] = system: Human immunodeficiency virus 1; test: Ratio of EC50 for wild type HIV1 NL4-3 to EC50 for HIV1 NL4-3 harboring reverse transcriptase K101E mutant; assay type: functional
# [39] = system: Human immunodeficiency virus 1; test: Ratio of EC50 for wild type HIV1 NL4-3 to EC50 for HIV1 NL4-3 harboring reverse transcriptase Y181I, Y188L mutant; assay type: functional
# [40] = system: Human immunodeficiency virus 1; test: Antiviral activity against HIV1 NL4-3 harboring reverse transcriptase V108I, E138K mutant infected in human SupT1 cells derived from 9 viral passages with lersivirine assessed as inhibition of viral replication after 21 days relative to drug sensitive HIV1 NL4-3; assay type: functional, SUP-T1
# Amine oxidase [flavin-containing] A, sequence (P21397 whole entry): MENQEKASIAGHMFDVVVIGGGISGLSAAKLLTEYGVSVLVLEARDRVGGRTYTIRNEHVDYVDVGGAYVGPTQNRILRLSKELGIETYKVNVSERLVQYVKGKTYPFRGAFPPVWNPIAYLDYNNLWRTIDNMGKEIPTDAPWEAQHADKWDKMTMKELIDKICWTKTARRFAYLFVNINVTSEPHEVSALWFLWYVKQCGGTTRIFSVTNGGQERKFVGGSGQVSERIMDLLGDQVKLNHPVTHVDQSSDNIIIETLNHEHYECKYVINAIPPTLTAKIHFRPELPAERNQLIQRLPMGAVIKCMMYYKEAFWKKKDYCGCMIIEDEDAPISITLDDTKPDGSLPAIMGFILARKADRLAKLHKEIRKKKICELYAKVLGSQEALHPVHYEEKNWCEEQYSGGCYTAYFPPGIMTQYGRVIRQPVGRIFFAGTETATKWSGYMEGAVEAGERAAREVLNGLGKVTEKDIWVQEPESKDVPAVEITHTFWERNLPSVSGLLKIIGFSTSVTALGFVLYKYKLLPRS
# 5-hydroxytryptamine receptor 1B (Homo sapiens), sequence (P28222 whole entry): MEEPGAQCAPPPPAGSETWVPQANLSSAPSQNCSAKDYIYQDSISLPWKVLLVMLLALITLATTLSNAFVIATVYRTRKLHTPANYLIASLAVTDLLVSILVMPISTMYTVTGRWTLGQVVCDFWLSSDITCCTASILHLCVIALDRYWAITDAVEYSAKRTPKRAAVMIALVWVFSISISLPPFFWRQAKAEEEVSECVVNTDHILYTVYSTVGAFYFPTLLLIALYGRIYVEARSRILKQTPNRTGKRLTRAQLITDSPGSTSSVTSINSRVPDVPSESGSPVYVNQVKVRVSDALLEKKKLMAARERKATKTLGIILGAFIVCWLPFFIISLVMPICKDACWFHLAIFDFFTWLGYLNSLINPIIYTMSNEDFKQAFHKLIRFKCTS
# Acetylcholinesterase (Homo sapiens), sequence (P22303 whole entry): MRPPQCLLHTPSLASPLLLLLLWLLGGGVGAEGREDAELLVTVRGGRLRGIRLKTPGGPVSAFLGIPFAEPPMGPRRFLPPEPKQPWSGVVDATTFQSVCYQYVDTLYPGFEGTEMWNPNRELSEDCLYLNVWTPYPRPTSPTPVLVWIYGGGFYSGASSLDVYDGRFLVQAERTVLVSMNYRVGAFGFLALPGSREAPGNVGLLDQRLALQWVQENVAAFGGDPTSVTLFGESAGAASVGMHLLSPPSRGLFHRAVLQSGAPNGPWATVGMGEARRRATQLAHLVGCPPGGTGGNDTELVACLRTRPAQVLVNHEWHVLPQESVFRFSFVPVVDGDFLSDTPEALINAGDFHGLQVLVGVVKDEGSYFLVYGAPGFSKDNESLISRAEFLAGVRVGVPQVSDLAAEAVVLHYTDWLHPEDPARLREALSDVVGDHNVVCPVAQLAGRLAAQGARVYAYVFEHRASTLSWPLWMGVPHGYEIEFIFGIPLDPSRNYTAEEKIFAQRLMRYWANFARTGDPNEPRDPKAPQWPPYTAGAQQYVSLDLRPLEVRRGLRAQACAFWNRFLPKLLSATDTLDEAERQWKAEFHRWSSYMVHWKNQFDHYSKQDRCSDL
# 5-hydroxytryptamine receptor 2A (Homo sapiens), sequence (P28223 whole entry): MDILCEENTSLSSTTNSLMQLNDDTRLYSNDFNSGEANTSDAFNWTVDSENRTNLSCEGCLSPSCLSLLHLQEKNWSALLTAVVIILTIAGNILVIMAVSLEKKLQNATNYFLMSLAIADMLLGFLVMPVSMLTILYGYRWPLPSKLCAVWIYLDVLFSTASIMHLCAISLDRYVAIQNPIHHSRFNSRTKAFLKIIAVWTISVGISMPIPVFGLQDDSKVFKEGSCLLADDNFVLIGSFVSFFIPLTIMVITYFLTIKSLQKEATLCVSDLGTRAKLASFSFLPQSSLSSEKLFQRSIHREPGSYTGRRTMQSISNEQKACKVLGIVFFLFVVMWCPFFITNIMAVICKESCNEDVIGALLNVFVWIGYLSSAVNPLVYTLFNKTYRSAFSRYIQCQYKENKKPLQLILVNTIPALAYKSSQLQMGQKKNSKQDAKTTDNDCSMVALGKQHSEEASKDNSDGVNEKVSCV
# Beta-1 adrenergic receptor (Homo sapiens), sequence (P08588 whole entry, looked up): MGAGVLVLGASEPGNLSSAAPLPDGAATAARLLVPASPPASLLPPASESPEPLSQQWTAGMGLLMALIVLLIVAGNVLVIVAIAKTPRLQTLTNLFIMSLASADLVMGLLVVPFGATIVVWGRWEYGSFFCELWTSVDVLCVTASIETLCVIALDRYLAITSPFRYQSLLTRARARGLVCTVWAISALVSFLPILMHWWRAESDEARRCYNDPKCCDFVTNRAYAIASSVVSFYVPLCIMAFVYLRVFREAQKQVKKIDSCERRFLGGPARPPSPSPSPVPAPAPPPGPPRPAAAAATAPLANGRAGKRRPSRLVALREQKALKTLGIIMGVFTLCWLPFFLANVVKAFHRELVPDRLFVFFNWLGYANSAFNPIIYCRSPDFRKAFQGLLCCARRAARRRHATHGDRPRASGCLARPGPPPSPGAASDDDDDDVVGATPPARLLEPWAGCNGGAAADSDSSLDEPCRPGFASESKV
# Histamine H1 receptor (Homo sapiens), sequence (P35367 whole entry): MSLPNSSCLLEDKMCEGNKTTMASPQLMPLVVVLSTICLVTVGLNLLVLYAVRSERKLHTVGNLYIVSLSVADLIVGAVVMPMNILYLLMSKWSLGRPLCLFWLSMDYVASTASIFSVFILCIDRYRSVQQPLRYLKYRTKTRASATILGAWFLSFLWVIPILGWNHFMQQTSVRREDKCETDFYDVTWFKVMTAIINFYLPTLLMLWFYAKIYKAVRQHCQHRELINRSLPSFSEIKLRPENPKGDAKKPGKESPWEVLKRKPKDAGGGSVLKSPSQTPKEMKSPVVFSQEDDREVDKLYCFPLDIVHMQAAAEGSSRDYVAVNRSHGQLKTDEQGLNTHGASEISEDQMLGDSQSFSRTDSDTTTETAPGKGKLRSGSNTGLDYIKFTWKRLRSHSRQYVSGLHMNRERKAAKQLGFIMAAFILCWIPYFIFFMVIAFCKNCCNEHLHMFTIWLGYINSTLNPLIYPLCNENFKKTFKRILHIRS
# Beta-2 adrenergic receptor (Homo sapiens), sequence (P07550 whole entry, looked up): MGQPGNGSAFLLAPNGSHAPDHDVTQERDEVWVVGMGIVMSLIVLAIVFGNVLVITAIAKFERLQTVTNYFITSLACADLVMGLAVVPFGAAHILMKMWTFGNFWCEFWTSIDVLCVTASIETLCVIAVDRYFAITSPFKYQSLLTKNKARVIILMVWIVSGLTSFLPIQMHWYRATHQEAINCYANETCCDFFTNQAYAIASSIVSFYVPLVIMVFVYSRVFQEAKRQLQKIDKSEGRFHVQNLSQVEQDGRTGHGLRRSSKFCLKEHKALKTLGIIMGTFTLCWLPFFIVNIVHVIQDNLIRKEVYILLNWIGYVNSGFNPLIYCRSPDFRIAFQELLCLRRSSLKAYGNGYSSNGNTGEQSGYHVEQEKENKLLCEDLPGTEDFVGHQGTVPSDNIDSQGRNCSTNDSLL
compound,measurement,setting,value
CCc1nn(CCO)c(CC)c1Oc1cc(C#N)cc(C#N)c1 [LERSIVIRINE],fold change (FC),[1],143
same,inhibition,[2],Active
same,IC50,[3],215 nM
same,inhibition,[4],Active
same,EC50,[5],0.5 nM
same,inhibition,[6],Active
same,Ratio,[7],9818
same,inhibition,Homo sapiens [8],inactive
same,inhibition,[9],inactive
same,Activity,[10],Active
same,Ratio EC50,[11],10
same,inhibition,[12],inactive
same,inhibition,[13],inactive
same,inhibition,[14],Active
same,inhibition,Homo sapiens [15],inactive
same,inhibition,[16],Active
same,Ratio EC50,[17],10
same,inhibition,[18],inactive
same,Ratio EC50,[19],55
same,Ratio EC50,[20],20
same,inhibition (INH),[21],Not Active
same,inhibition,[22],Active
same,Activity,[23],Non-toxic
same,inhibition,[24],inactive
same,inhibition,[25],Active
same,inhibition,[26],Active
same,Ratio,[27],>7092
same,Ratio EC50,[28],10
same,inhibition,Homo sapiens [29],inactive
same,inhibition,[30],Active
same,EC50,[31],7.05 nM
same,inhibition,[32],Active
same,inhibition,[33],inactive
same,Ratio EC50,[34],10
same,inhibition,[35],inactive
same,inhibition,[36],inactive
same,fold change (FC),[37],60.5
same,Ratio EC50,[38],10
same,Ratio EC50,[39],65
same,fold change (FC),[40],14

# — ChEMBL document CHEMBL1687773 (Antimicrob Agents Chemother, 2010)
